# Assays:
# Experiment in all cases: relative viability (nuclei count vs DMSO), 5 days (fraction); higher = more cells survive
# NCI-H2342 = test system: NCI-H2342
# Summary of the method: (§1)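 Medians of duplicate plates are given as relative viability. That measure is the nuclei count in treated wells divided by the count in vehicle wells. Counts were taken on 4× images of lung cancer cell lines in 1536-well plates, 5 days after pin-tool dosing the day after seeding with one drug alone or a fixed anchor-drug dose plus five library-drug doses (not always all listed) in √10 steps.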
# COR-L23 = test system: COR-L23
# Summary of the method: as §1
# NCI-H661 = test system: NCI-H661
# Summary of the method: as §1
# NCI-H1651 = test system: NCI-H1651
# Summary of the method: as §1
# LXF-289 = test system: LXF-289
# Summary of the method: as §1
# NCI-H1915 = test system: NCI-H1915
# Summary of the method: as §1
# NCI-H520 = test system: NCI-H520
# Summary of the method: as §1
# ABC-1 = test system: ABC-1
# Summary of the method: as §1
# NCI-H2347 = test system: NCI-H2347
# Summary of the method: as §1
# COR-L 105 = test system: COR-L 105
# Summary of the method: as §1
# LCLC-97TM1 = test system: LCLC-97TM1
# Summary of the method: as §1
# NCI-H460 = test system: NCI-H460
# Summary of the method: as §1
# CAL-12T = test system: CAL-12T
# Summary of the method: as §1
# HOP-62 = test system: HOP-62
# Summary of the method: as §1
# NCI-H838 = test system: NCI-H838
# Summary of the method: as §1
# NCI-H1993 = test system: NCI-H1993
# Summary of the method: as §1
# NCI-H441 = test system: NCI-H441
# Summary of the method: as §1
# NCI-H522 = test system: NCI-H522
# Summary of the method: as §1
# NCI-H1437 = test system: NCI-H1437
# Summary of the method: as §1
# NCI-H2023 = test system: NCI-H2023
# Summary of the method: as §1
# NCI-H2009 = test system: NCI-H2009
# Summary of the method: as §1
# PC-3 [JPC-3] = test system: PC-3 [JPC-3]
# Summary of the method: as §1
# A-427 = test system: A-427
# Summary of the method: as §1
structure (smiles),measurement,setting,value
C=C1C(=O)O[C@@H](CCCCCCCC)[C@@H]1C(=O)O [C-75] + Cc1nc(Nc2ncc(C(=O)Nc3c(C)cccc3Cl)s2)cc(N2CCN(CCO)CC2)n1 [Dasatinib] (partner 0.075 µM),relative viability,NCI-H2342; first compound 0.08 µM,0.3
same,relative viability,NCI-H2342; first compound 0.253 µM,0.314
same,relative viability,NCI-H2342; first compound 0.8 µM,0.301
same,relative viability,NCI-H2342; first compound 2.53 µM,0.327
same,relative viability,NCI-H2342; first compound 8 µM,0.316
same,relative viability,COR-L23; first compound 0.08 µM,0.518
same,relative viability,COR-L23; first compound 0.253 µM,0.532
same,relative viability,COR-L23; first compound 0.8 µM,0.489
same,relative viability,COR-L23; first compound 2.53 µM,0.328
same,relative viability,COR-L23; first compound 8 µM,0.48
same,relative viability,NCI-H661; first compound 0.08 µM,0.839
same,relative viability,NCI-H661; first compound 0.253 µM,0.795
same,relative viability,NCI-H661; first compound 0.8 µM,0.857
same,relative viability,NCI-H661; first compound 2.53 µM,0.856
same,relative viability,NCI-H661; first compound 8 µM,0.746
same,relative viability,NCI-H1651; first compound 0.08 µM,0.484
same,relative viability,NCI-H1651; first compound 0.253 µM,0.339
same,relative viability,NCI-H1651; first compound 0.8 µM,0.364
same,relative viability,NCI-H1651; first compound 2.53 µM,0.362
same,relative viability,NCI-H1651; first compound 8 µM,0.413
same,relative viability,LXF-289; first compound 0.08 µM,0.22
same,relative viability,LXF-289; first compound 0.253 µM,0.137
same,relative viability,LXF-289; first compound 0.8 µM,0.26
same,relative viability,LXF-289; first compound 2.53 µM,0.163
same,relative viability,LXF-289; first compound 8 µM,0.22
same,relative viability,NCI-H1915; first compound 0.08 µM,0.343
same,relative viability,NCI-H1915; first compound 0.253 µM,0.304
same,relative viability,NCI-H1915; first compound 0.8 µM,0.311
same,relative viability,NCI-H1915; first compound 2.53 µM,0.289
same,relative viability,NCI-H1915; first compound 8 µM,0.383
same,relative viability,NCI-H520; first compound 0.08 µM,0.188
same,relative viability,NCI-H520; first compound 0.253 µM,0.206
same,relative viability,NCI-H520; first compound 0.8 µM,0.206
same,relative viability,NCI-H520; first compound 2.53 µM,0.182
same,relative viability,NCI-H520; first compound 8 µM,0.179
same,relative viability,ABC-1; first compound 0.08 µM,0.729
same,relative viability,ABC-1; first compound 0.253 µM,0.613
same,relative viability,ABC-1; first compound 0.8 µM,0.566
same,relative viability,ABC-1; first compound 2.53 µM,0.585
same,relative viability,ABC-1; first compound 8 µM,0.388
same,relative viability,NCI-H2347; first compound 0.08 µM,0.367
same,relative viability,NCI-H2347; first compound 0.253 µM,0.448
same,relative viability,NCI-H2347; first compound 0.8 µM,0.25
same,relative viability,NCI-H2347; first compound 8 µM,0.32
same,relative viability,COR-L 105; first compound 0.08 µM,0.401
same,relative viability,COR-L 105; first compound 0.253 µM,0.243
same,relative viability,COR-L 105; first compound 0.8 µM,0.358
same,relative viability,COR-L 105; first compound 2.53 µM,0.338
same,relative viability,COR-L 105; first compound 8 µM,0.303
same,relative viability,LCLC-97TM1; first compound 0.08 µM,0.799
same,relative viability,LCLC-97TM1; first compound 0.253 µM,0.807
same,relative viability,LCLC-97TM1; first compound 0.8 µM,0.883
same,relative viability,LCLC-97TM1; first compound 2.53 µM,0.704
same,relative viability,LCLC-97TM1; first compound 8 µM,0.874
same,relative viability,NCI-H460; first compound 0.08 µM,0.592
same,relative viability,NCI-H460; first compound 0.253 µM,0.364
same,relative viability,NCI-H460; first compound 0.8 µM,0.415
same,relative viability,NCI-H460; first compound 2.53 µM,0.258
same,relative viability,NCI-H460; first compound 8 µM,0.383
same,relative viability,CAL-12T; first compound 0.08 µM,0.391
same,relative viability,CAL-12T; first compound 0.253 µM,0.393
same,relative viability,CAL-12T; first compound 0.8 µM,0.432
same,relative viability,CAL-12T; first compound 2.53 µM,0.317
same,relative viability,CAL-12T; first compound 8 µM,0.303
same,relative viability,HOP-62; first compound 0.08 µM,0.642
same,relative viability,HOP-62; first compound 0.253 µM,0.499
same,relative viability,HOP-62; first compound 0.8 µM,0.6
same,relative viability,HOP-62; first compound 2.53 µM,0.603
same,relative viability,HOP-62; first compound 8 µM,0.666
same,relative viability,NCI-H838; first compound 0.08 µM,0.242
same,relative viability,NCI-H838; first compound 0.253 µM,0.239
same,relative viability,NCI-H838; first compound 0.8 µM,0.274
same,relative viability,NCI-H838; first compound 2.53 µM,0.26
same,relative viability,NCI-H838; first compound 8 µM,0.268
same,relative viability,NCI-H1993; first compound 0.08 µM,0.568
same,relative viability,NCI-H1993; first compound 0.253 µM,0.861
same,relative viability,NCI-H1993; first compound 0.8 µM,0.475
same,relative viability,NCI-H1993; first compound 2.53 µM,0.553
same,relative viability,NCI-H1993; first compound 8 µM,0.602
same,relative viability,NCI-H441; first compound 0.08 µM,0.545
same,relative viability,NCI-H441; first compound 0.253 µM,0.916
same,relative viability,NCI-H441; first compound 0.8 µM,0.723
same,relative viability,NCI-H441; first compound 2.53 µM,0.463
same,relative viability,NCI-H441; first compound 8 µM,0.594
same,relative viability,NCI-H522; first compound 0.08 µM,0.867
same,relative viability,NCI-H522; first compound 0.253 µM,0.849
same,relative viability,NCI-H522; first compound 0.8 µM,0.784
same,relative viability,NCI-H522; first compound 8 µM,0.906
same,relative viability,NCI-H1437; first compound 0.08 µM,0.4
same,relative viability,NCI-H1437; first compound 0.253 µM,0.381
same,relative viability,NCI-H1437; first compound 0.8 µM,0.367
same,relative viability,NCI-H1437; first compound 2.53 µM,0.298
same,relative viability,NCI-H1437; first compound 8 µM,0.458
same,relative viability,NCI-H2023; first compound 0.08 µM,0.639
same,relative viability,NCI-H2023; first compound 0.253 µM,0.471
same,relative viability,NCI-H2023; first compound 0.8 µM,0.458
same,relative viability,NCI-H2023; first compound 2.53 µM,0.425
same,relative viability,NCI-H2023; first compound 8 µM,0.472
same,relative viability,NCI-H2009; first compound 0.08 µM,0.303
same,relative viability,NCI-H2009; first compound 0.253 µM,0.219
same,relative viability,NCI-H2009; first compound 0.8 µM,0.281
same,relative viability,NCI-H2009; first compound 2.53 µM,0.228
same,relative viability,NCI-H2009; first compound 8 µM,0.203
same,relative viability,PC-3 [JPC-3]; first compound 0.08 µM,1.01
same,relative viability,PC-3 [JPC-3]; first compound 0.253 µM,0.994
same,relative viability,PC-3 [JPC-3]; first compound 0.8 µM,1.01
same,relative viability,PC-3 [JPC-3]; first compound 2.53 µM,0.937
same,relative viability,PC-3 [JPC-3]; first compound 8 µM,1
same,relative viability,A-427; first compound 0.08 µM,0.689
same,relative viability,A-427; first compound 0.253 µM,0.661
same,relative viability,A-427; first compound 0.8 µM,0.645
same,relative viability,A-427; first compound 2.53 µM,0.605
same,relative viability,A-427; first compound 8 µM,0.658

# From the supplement of paper PMC10307832
